Source: article PMC10056348, “Photocaged Histone Deacetylase Inhibitors as Prodrugs in Targeted Cancer Therapy” (Pharmaceuticals, 2023)
Like-named read-outs stand apart in the source and are kept apart here.

Experiments:
[1] = target: T1, human recombinant HDAC6 (Homo sapiens, UniProt Q9UBN7); experiment: Fluorogenic HDAC enzyme inhibition assay (ZMAL substrate), HDAC6; assay type: biochemical
T1 construct: purchased BPS Bioscience Inc. 50006
T1 sequence (Q9UBN7 1-1215): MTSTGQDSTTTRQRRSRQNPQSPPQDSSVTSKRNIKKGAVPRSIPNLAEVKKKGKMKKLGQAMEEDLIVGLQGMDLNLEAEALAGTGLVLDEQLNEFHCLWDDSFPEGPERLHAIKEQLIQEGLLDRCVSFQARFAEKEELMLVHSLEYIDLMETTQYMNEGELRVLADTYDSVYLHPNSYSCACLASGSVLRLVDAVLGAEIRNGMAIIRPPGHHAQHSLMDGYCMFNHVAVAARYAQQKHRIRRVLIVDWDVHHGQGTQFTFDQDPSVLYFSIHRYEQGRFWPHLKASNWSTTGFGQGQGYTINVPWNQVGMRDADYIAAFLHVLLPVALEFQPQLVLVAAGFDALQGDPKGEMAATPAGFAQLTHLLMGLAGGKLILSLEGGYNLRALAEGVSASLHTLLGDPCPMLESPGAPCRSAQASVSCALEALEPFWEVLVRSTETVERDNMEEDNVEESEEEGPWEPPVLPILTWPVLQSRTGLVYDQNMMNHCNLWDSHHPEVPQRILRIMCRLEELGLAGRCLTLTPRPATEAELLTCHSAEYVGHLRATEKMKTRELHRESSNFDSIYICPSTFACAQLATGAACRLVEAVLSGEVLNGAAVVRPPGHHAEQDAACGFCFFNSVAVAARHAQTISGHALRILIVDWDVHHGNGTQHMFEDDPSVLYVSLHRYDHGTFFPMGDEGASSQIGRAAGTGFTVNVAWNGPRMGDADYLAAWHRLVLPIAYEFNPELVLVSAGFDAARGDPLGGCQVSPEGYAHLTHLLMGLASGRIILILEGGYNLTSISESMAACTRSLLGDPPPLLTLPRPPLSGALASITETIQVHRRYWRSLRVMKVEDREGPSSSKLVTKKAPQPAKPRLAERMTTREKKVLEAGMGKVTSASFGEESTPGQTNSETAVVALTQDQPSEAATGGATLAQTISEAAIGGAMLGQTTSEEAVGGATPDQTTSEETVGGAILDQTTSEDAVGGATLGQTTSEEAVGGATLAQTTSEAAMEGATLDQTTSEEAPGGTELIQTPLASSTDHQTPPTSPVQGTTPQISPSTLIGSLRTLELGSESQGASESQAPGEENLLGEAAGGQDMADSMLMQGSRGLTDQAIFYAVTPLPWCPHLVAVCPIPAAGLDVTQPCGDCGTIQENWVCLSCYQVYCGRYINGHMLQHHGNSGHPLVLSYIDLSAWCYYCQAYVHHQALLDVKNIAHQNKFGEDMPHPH
Protocol: First, predilutions (100-fold final assay concentration) of test compounds or reference inhibitors were prepared. To this end, 3-fold serial dilutions of the respective DMSO stock solutions were prepared in DMSO using clear V-bottom 96-well microplates (Greiner Bio-One, Greiner AG, Kremsmünster, Austria). Predilutions designated for photolysis were irradiated for 10 min using the UV reactor described above. […] Next, 5.0 µL of these serial dilutions in assay buffer were transferred into 96-well microplates (OptiPlate-96 Black, PerkinElmer, Waltham, MA, USA). […] Fluorescence (excitation: 355 nm, emission: 460 nm) was measured using a FLUOstar OPTIMA microplate reader (BMG LABTECH GmbH, Ortenberg, Germany). IC50 values were determined by generating normalized dose–response curves using the built-in “log(inhibitor) vs. response (three parameters)” equation provided by GraphPad Prism (GraphPad Prism 9.0, San Diego, CA, USA). All compounds were tested in duplicates; reported mean IC50 values, including standard deviation, were calculated from at least two independent experiments.

[2] = tested on: cellular HDAC activity in MV-3 cells; experiment: HDAC whole-cell assay; assay type: cell-based; conditions: for IC50: read-out: IC50 whole-cell HDAC inhibition
Protocol: The amelanotic melanoma cell line MV-3 was obtained from EPO GmbH Berlin-Buch. The human ovarian carcinoma cell line A2780 was obtained from the European Collection of Cell Cultures (ECACC, Salisbury, UK). The cell lines were cultivated in RPMI 1640 medium supplemented with 10% fetal bovine serum and 50 U/mL penicillin and 50 µg/mL streptomycin and incubated at 37 °C under humidified air with 5% CO2 to 80–90% confluency before being used in further assays.
The HDAC whole-cell assay is based on the assay established by Ciossek et al. and Bonfils et al., with minor changes. Melanoma cells MV-3 were seeded in concentration of 15 × 10^3 cells/well (total volume of 81 µL) in 96-well cell-culture microplates (Catalog# 655086, Greiner Bio-One, Frickenhausen, Germany ) and cultured for 24 h. Aliquots of the DMSO stock solutions (10 mM) designated for photolysis were irradiated for 10 min with the UV reactor (see Section 4.3). The stock solutions processed with or without irradiation were used to perform a 4-fold serial dilution in PBS. Next, the cells were treated with 9 µL of the serial dilution for 18 h. For the analysis of the remaining HDAC activity, 10 µL of substrate solution, containing 3 mM Boc-Lys(ε-Ac)-AMC (Catalog# 233691-67-3, BLD pharmatech GmbH, Kaiserslautern, Germany) and 0.5% IGEPAL CA-630 (Catalog# J61055, Alfa Aesar, Thermo Fisher Scientific, Heysham, United Kingdom), was added and incubated for 3 h under cell culture conditions. The reaction was stopped with 100 µL of stop solution (50 mM Tris-HCl, 137 mM NaCl, 2.7 mM KCl, 1 mM MgCl2, 1% IGEPAL CA-630, 10 µM vorinostat, 2.0 mg/mL trypsin) and developed for 1.5 h under cell culture conditions. The fluorescence signal was measured using a Spark multimode microplate reader (Tecan Group AG, Männedorf, Swiss) at excitation wavelength of λ = 355 nm and emission wavelength of λ = 460 nm. Concentration-effect curves were generated using the four-parameter logistic equation (GraphPad Prism 9.0, San Diego, CA, USA), and mean IC50 values were determined by nonlinear regression based on at least three independent experiments in duplicates.

Row | IC50 ([1]; without UV irradiation) [nM] | IC50 ([2]; 18 h, without UV irradiation) [nM] | IC50 ([2]; MV-3, light or radiation study, 18 h, without UV irradiation) [nM] | IC50 ([1]; after UV irradiation (365 nm, 10 min)) [nM] | increase of HDAC6 inhibition upon irradiation with UV light ([1]; irradiated vs non-irradiated) [fold] | IC50 ([2]; light or radiation study, 18 h, after UV irradiation (365 nm, 10 min)) [nM] | Compound | IC50 whole-cell HDAC inhibition ([2]; 18 h, without UV irradiation) | inhibition at 25 µM ([2]; light or radiation study, at 25 µM, without UV irradiation) [%]
1 | 13.1 ± 0.9 | 90.6 ± 5.74 | 91 | – | – | – | CN(C)c1ccc(C(=O)N(CC(=O)NCc2ccccc2)Cc2ccc(C(=O)NO)cc2)cc1 [I, N-[2-(benzylamino)-2-oxoethyl]-4-(dimethylamino)-N-[4-(hydroxycarbamoyl)-benzyl]-benzamide] | – | –
2 | 794 ± 74.7 | – | – | 21.6 ± 2.8 | 37 | 73 | COc1cc(CONC(=O)c2ccc(CN(CC(=O)NCc3ccccc3)C(=O)c3ccc(N(C)C)cc3)cc2)c([N+](=O)[O-])cc1OC [pc-I, N-[2-(Benzylamino)-2-oxoethyl]-N-(4-{[(4,5-dimethoxy-2-nitrobenzyl)oxy]carbamoyl}benzyl)-4-(dimethylamino)benzamide] | n.e. (no effect: <25% inhibition at 25 µM) | < 25
